Assay results published in patent publication US9603821B2, “Inhibitor of τ protein phosphorylation” (NISHIZAKI BIOINFORMATION RESEARCH INSTITUTE, priority 2013, dated 2017).

Key:
[1] = target: T1, Human PTP1B (Homo sapiens, UniProt P18031); test: Assay of PTP1B activity under cell-free conditions (p-NPP dephosphorylation); type: biochemical; settings: DCP-LA 1-100 μM, p-NPP 10 mM, FIG. 1
T1 construct: made in house; host or cells: E. coli BL21 (DE3)
T1 sequence (P18031 1-435): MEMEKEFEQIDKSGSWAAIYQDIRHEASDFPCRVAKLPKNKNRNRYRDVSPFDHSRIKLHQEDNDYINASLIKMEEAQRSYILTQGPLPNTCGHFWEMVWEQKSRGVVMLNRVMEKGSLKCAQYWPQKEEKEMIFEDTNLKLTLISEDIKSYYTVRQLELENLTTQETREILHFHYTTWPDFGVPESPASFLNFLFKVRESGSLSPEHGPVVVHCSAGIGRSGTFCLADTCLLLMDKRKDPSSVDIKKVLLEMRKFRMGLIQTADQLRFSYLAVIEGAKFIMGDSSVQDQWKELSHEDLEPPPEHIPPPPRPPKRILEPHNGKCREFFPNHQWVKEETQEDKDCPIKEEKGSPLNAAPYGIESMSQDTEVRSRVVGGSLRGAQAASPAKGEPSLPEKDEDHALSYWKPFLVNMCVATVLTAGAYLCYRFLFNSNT
Procedure: Protein tyrosine phosphatase was measured under cell-free conditions by a method partially modified from the methods described in previous reports (Baba Y, et al. J Am Chem Soc 2003; 125; 9740-9749; Rice R L, et al. Biochemistry 1997; 36: 15965-15974). Human PTP1B was cloned to a pGEX-6P-3 vector having a GST tag at the NH2 terminus, and expressed in competent E. coli BL21 (DE3) suitable for transformation and protein expression. GST fusion PTP1B was affinity-purified using glutathione sepharose 4B (GE Healthcare Bio-Science KK, Tokyo, Japan). It was reacted with p-nitrophenylphosphate (p-NPP) (Sigma, St. Louis, Mo., USA) as a substrate and PTP1B activity was measured. The enzyme was pre-incubated in a reaction medium [50 mM HEPES, 1 mM EDTA, 50 mM NaCl, 1 mM dithiothreitol, pH 7.2] at 37° C. for 30 min in the presence or absence of DCP-LA at a given concentration (1-100 μM) and with or without addition of Na3VO4 which is a PTP1B inhibitor. Then, p-NPP (10 mM) was added to the reaction medium, and the mixture was incubated for 60 min. The reaction was discontinued by the addition of 0.1N NaOH. Dephosphorylated p-NPP, i.e., p-NP, was quantified at an absorbance of 405 nm by using SpectraMax PLUS384 (Molecular Devices, Sunnyvale, Calif., USA).

[2] = target: T2, human recombinant PKCε (Homo sapiens, UniProt Q02156); test: GSK-3β assay under cell-free conditions with PKCε; type: biochemical; settings: FIG. 7
T2 construct: His; purchased Calbiochem
T2 sequence (Q02156 1-737): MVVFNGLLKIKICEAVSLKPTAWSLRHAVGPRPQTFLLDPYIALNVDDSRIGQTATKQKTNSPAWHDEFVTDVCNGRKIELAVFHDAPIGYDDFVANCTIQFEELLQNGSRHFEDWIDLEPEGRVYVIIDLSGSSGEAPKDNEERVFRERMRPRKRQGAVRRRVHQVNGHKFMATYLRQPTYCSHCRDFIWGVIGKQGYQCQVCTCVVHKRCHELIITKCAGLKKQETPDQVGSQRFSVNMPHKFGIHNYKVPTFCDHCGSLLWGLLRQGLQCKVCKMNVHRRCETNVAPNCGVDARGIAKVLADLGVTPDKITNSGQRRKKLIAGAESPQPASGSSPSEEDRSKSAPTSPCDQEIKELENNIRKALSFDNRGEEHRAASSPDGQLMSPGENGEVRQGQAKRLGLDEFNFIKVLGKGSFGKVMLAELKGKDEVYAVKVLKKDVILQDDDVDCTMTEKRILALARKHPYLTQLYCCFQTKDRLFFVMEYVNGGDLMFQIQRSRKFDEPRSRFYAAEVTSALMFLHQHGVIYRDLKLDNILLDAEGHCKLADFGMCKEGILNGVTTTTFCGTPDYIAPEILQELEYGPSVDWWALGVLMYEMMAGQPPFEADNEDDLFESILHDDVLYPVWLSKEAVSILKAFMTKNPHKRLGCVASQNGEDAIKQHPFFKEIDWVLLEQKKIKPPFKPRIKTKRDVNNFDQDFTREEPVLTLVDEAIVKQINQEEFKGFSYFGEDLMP
Procedure: Human recombinant GSK-3β (Sigma, St. Louis, Mo., USA) was reacted with His-tagged human recombinant PKCε (Calbiochem, San Diego, Calif., USA) under cell-free conditions in the presence or absence of a given concentration (1-100 μM) of DCP-LA, and with or without addition of GF109203X, in a culture medium containing 20 mM Tris-HCl (pH 7.5), 5 mM Mg-acetate, 12.5 mM glycerol 2-phosphate and 250 μM ATP at 30° C. for 20 min. The protein was separated by SDS-polyacrylamide gel electrophoresis (SDS-PAGE), and transferred on a polyvinylidene difluoride membrane. The blotting membrane was blocked with TBS-T [150 mM NaCl, 0.1% (v/v) Tween20 and 20 mM Tris, pH 7.5] containing 5% (w/v) BSA, and sequentially reacted with anti-serine 9 phosphorylated GSK-3β antibody (Cell Signaling Technology, Inc., Danvers, Mass., USA) or anti-GSK-3β antibody (Cell Signaling Technology, Inc., Danvers, Mass., USA). After washing, the membrane was reacted with horseradish peroxidase conjugated goat anti-mouse IgG antibody or goat anti-rabbit IgG antibody. The immunoreactivity was detected using ECL kit (GE Healthcare, Piscataway, N.J., USA), and visualized using a chemical luminescence detection system (chemiluminescence detection system; GE Healthcare).

[3] = system: Akt; test: Akt activation in rat hippocampus section, Western blotting; type: cell-based; settings: 100 nM, 3 min, FIG. 3
Procedure: (§1) A rat hippocampus section (male Wister rat, 6-week-old, 400 μm) was incubated in an artificial cerebrospinal fluid (117 mM NaCl, 3.6 mM KCl, 1.2 mM NaH2PO4, 1.2 mM MgCl2, 2.5 mM CaCl2, 25 mM NaHCO3, and 11.5 mM glucose) oxygenated with 95% O2 and 5% CO2, in the presence or absence of DCP-LA (100 nM) at 34° C. for 3 min. In another experiment set, the section was incubated with Aβ1-42 (1 μM) for 3 hr in the presence or absence of DCP-LA (100 nM). After incubation, the section was homogenized by sonication in an ice-cooled cell lysis buffer containing 1% (v/v) protease inhibitor cocktail and 1% (v/v) phosphatase inhibitor cocktail, and the homogenate was centrifuged (3,000 rpm, 5 min, 4° C.). The protein concentration of the supernatant was measured using BCA protein assay kit (Thermo Fisher Scientific, Rockford, Ill., USA). The protein was separated by SDS-polyacrylamide gel electrophoresis (SDS-PAGE), and transferred onto polyvinylidene difluoride membranes. […]
(§2) After washing, the membranes were reacted with horseradish peroxidase-conjugated goat anti-mouse IgG antibody or goat anti-rabbit IgG antibody. The immunoreactivity was detected using ECL kit (GE Healthcare, Piscataway, N.J., USA), and visualized using a chemical luminescence detection system (chemiluminescence detection system; GE Healthcare).

[4] = system: 5XFAD mouse; test: Water maze test in 5XFAD mouse; type: in vivo; settings: oral, 30 min before water maze test, daily, DCP-LA 1 mg/kg, galanthamine 2.5 mg/kg, FIG. 6
Excerpt: XFAD transgenic mouse is an animal model of Alzheimer's disease (AD), and contains five mutations of familial Alzheimer's disease (FAD) [Swedish, Florida and London mutations of human amyloid precursor protein (APP), and M146L and L286V mutations of presenilin (PS); Oakley H et al., J. Neurosci. 2006; 26: 10129-10140]. In 5XFAD mouse, Swedish mutation increases production of total amyloid β peptide (Aβ), and the remaining mutations particularly promote production of Aβ1-42.
5XFAD mouse was purchased from The Jackson Laboratory (Bar Harbor, Me., USA), and maintained by crossing with heterozygous transgenic mouse with B6/SJLF1 breeding stock. Non-transgenic wild-type litter-mate was used as a control. All experiments were performed at the age of 5.5-6.5 months.
A circular plastic water tank (diameter 90 cm, depth 36 cm) was used. The inside of the water tank was completely painted in white, and water containing White India ink was filled up to 20 cm from the bottom (22-25° C.). A platform (diameter 11 cm) painted in white was placed in water such that it was 1 cm below the water surface. The water tank was placed in a test room, and several marks seen by the mouse from the water tank were put thereon. During the test, the position of the marks was not changed. A platform was placed a predetermined position from the equal distance from the center and the end of the water tank, namely, center of one quadrant. At one of the randomly selected 3 points, the mouse was released facing the wall of the water tank, and the time necessary for evacuating on the platform (acquisition latency) was measured. When smoothly evacuated, the mouse was left on the platform for 10 seconds. […] The test was performed twice a day, and the second test was started at 30 seconds after the first test. The test was continuously performed for 8 days, and the mean (±SEM) of acquisition latency of continuous 2 days until the mouse reached the platform was calculated. After 7 days, the platform was removed and the time necessary for reaching the place where the platform was located (retention latency) was measured.
DCP-LA and galanthamine were dissolved in polyethylene glycol (PEG). DCP-LA, galanthamine and PEG were administered with an oral gavage needle 30 min before the water maze test.

[5] = system: τ protein; test: τ protein phosphorylation induced by Aβ1-42 in rat hippocampus section, Western blotting; type: cell-based; settings: Aβ1-42 1 μM for 3 hr, DCP-LA 100 nM, FIG. 5
Procedure: as §1, §2

[6] = system: GSK-3β; test: GSK-3β phosphorylation in rat hippocampus section, Western blotting; type: cell-based; settings: 100 nM, 3 min, FIG. 4
Procedure: as §1, §2

## CCCCCC1CC1CC1CC1CCCCCCCC(=O)O (stereo not shown) [DCP-LA, 8-[2-(2-Pentyl-cyclopropylmethyl)-cyclopropyl]-octanoic acid]
[1]
  PTP1B inhibition (phosphatase activity, percentage of control): inhibits PTP1B in a concentration-dependent manner
[2]; PKCε 1 μg/ml, DCP-LA 1-100 μM
  Ser9 phosphorylation of GSK-3β by PKCε: phosphorylates (inactivates) GSK-3β in the presence of PKCε
[3]
  Akt activation (phosphorylation of Thr308 and Ser473 relative to total Akt): has an action to activate Akt
[4]
  acquisition latency: improved extension of both latencies to nearly normal levels
  retention latency: improved extension of both latencies to nearly normal levels
[5]
  Ser202/Thr205 phosphorylation of τ protein induced by Aβ1-42 relative to total τ protein: suppresses phosphorylation of τ protein induced by Aβ1-42
[6]
  Ser9 phosphorylation of GSK-3β relative to total GSK-3β: phosphorylates (inactivates) GSK-3β

## CN(C)CCCn1cc(C2=C(c3c[nH]c4ccccc34)C(=O)NC2=O)c2ccccc21 [GF109203X, reference compound]
[2]; GF109203X 100 nM in the presence of DCP-LA and PKCε
  suppression of DCP-LA/PKCε-induced Ser9 phosphorylation of GSK-3β: phosphorylation is suppressed by GF109203X

## COc1ccc2c3c1O[C@H]1C[C@@H](O)C=C[C@@]31CCN(C)C2 [galanthamine, reference compound]
[4]
  acquisition latency: showed no effect
  retention latency: showed no effect
